Test results published in US7750184B2, “Vitamin D receptor modulators” (Eli Lilly and Company, priority 2003, dated 2010).
pEC50: −log10 of the molar value.

Tests used:
rat osteocalcin promoter = assay: OCN (osteocalcin) promoter assay; type: cell-based; settings: RG-15 (ROS 17/2.8) cells, 48 hr treatment, luciferase reporter
Description: 3. The OCN (osteocalcin) Promoter Assay
The OCN Promoter Assay is an indicator and marker for osteoporosis. […] Preferred assay results are less than 50 nM.
(3) Materials and Method for the OCN Promoter Assay:
The activation of osteocalcin by VDR ligands was evaluated in a rat osteoblast-like cell line RG-15 (ROS 17/2.8) stably expressing rat osteocalcin promoter fused with luciferase reporter gene. […] Confluent RG-15 cells maintained in DMEM/F-12 medium (3:1) containing 5% FBS, 300 μg/ml G418 and at 37° C. under 5% CO2/95% air atmosphere were trypsinized (0.25% trypsin) and plated into white opaque 96-well cell culture plates (25000 cells/well). After 24 hr, cells (in DMEM/F-12 medium+2% FBS) were treated with various concentrations of compounds, dissolved in DMSO. The final DMSO concentration remained at 0.01% (v/v). After 48 hr treatment, the medium was removed, cells were lysed with 50 μl of lysis buffer (From Luciferase reporter assay system, Roche Diagnostics, Indianapolis, Ind.) and assayed for luciferase activity using the Luciferase Reporter Gene Assay kit from Boehringer Mannheim as per manufacturer's specifications.

VDR = biological target: T1, VDR (Homo sapiens, UniProt P11473); assay: Caco-2 cell co-transfection assay (VDR CTF); type: cell-based; settings: Caco-2 cells, pGal4-VDR-LBD co-transfection, luciferase reporter
T1 construct: the receptor expression vector pGal4-VDR-LBD (10 ng); expressed in transfected cells; host or cells: Caco-2 cells
T1 sequence (P11473 127-423 limits assumed): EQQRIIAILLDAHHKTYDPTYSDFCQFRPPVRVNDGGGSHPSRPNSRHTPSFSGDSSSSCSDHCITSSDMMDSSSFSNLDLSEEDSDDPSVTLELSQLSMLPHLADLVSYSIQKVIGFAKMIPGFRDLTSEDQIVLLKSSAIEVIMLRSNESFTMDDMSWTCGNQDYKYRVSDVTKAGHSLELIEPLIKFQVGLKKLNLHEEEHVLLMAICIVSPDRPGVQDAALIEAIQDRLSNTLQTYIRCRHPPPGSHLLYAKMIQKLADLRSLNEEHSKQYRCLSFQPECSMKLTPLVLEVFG
Description: 2. The Caco-2 Cell Co-Transfection Assay:
The Caco-2 cell assay is an indicator for the undesirable condition of hypercalcemia. This co-transfection assay is a surrogate assay for in vivo calcemic activity of VDR ligands. […] Preferred assay results are greater than 1000 nM.
(2) Materials and Method for The Caco-2 Cell Assay:
Caco-2 cells, grown in phenol red free, DMEM (Invitrogen, Carlsbad, Calif.) containing 10% charcoal-stripped FCS (Hyclone, Logan, Utah), were transfected with Fugene 6 reagent (Roche Diagnostics, Indianapolis, Ind.). Cells (5000/well) were plated 18 h before transfection in a 96 well plate. The Cells were transfected with Gal4-responsive reporter pFRLuc (150 ng, Stratagene, La Jolla Calif.) and the receptor expression vector pGal4-VDR-LBD (10 ng), along with Fugene 6 reagent (0.2 μl/well). The DNA-Fugene complex was formed by incubating the mixture for 30 min at room temperature. The cells were transfected in triplicate for 5 h, and treated with various concentrations of VDR ligands (form 0.01 nM to 10,000 nM concentration range) 18 h post-transfection. The luciferase activity was quantified using Steady-Glo reagent kit (Promega, Madison, Wis.) as per manufacturer's specifications.

[1] = Mouse hypercalcemia assay; settings: oral gavage for 6 days, serum ionized calcium 6 hours after last dosing
Description: The Mouse Hypercalcemia Assay is a six day hypercalcemia test for toxicity and selectivity. Acceptable test results are levels greater than 300 μg/kg/day. Preferred assay results are levels greater than 1000 μg/day.
(4) Materials and Method for the Mouse Hypercalcemia Assay:
Weanling, virus—antibody-free, five to six weeks old female DBF mice (Harlan, Indianapolis, Ind.) are used for all the studies. Animals are allowed to acclimate to local vivarium conditions for 2 days. […] The animals then are divided into groups with 4-5 mice per group. Different doses of test compounds prepared in 10% Ethanol and 90% sesame oil are administered to mice orally via gavage for 6 days. 1α-25(OH)2D3 0.5 μg/kg/d was also given to one group of mice as the positive control. […] Raw data of group differences is assessed by analysis of variance (ANOVA) using Fisher's protected least significant difference (PLSD) where the significance level was P<0.05.

CCC(CC)(c1ccc(OCC(=O)C(C)(C)C)c(C)c1)c1ccc(N(CCSC)S(C)(=O)=O)c(C)c1 [Ex. 30, N-(4-{1-[4-(3,3-Dimethyl-2-oxo-butoxy)-3-methyl-phenyl]-1-ethyl-propyl}-2-methyl-phenyl)-N-(2-methylsulfanyl-ethyl)-methanesulfonamide]
pEC50 (rat osteocalcin promoter; Rattus norvegicus, 48 h): 6.98

CCC(CC)(c1ccc(OCC(=O)C(C)(C)C)c(C)c1)c1ccc(OS(=O)(=O)CC)c(C)c1 [Ex. 8, 3′-[4-(2-oxo-3,3-dimethylbutoxy)-3-methylphenyl]-3′-[4-(ethanesulfonyloxy)-3-methylphenyl]pentane]
pEC50 (rat osteocalcin promoter; Rattus norvegicus, 48 h): 8.46 | EC50 (VDR): 34.8 nM

CCC(CC)(c1ccc(OC[C@H](O)C(C)(C)C)c(C)c1)c1ccc(OS(C)(=O)=O)c(C)c1 (single isomer, unassigned) [Ex. 2, 3′-[4-(2-hydroxy-3,3-dimethylbutoxy)-3-methylphenyl]-3′-[4-(methanesulfonyloxy)-3-methylphenyl]pentane]
pEC50 (rat osteocalcin promoter): 8.29 | Mouse Hypercal [1]: 50 µg/kg/day | EC50 (VDR): 46.5 nM

CCC(CC)(c1ccc(OCC(=O)C(C)(C)C)c(C)c1)c1ccc(N(S(=O)(=O)CC)S(=O)(=O)CC)c(C)c1 [Ex. 22, N-(4-{1-[4-(3,3-dimethyl-2-oxo-butoxy)-3-methyl-phenyl]-1-ethyl-propyl}-2-methyl-phenyl)-N,N-bis-ethanesulfonamide]
pEC50 (rat osteocalcin promoter; Rattus norvegicus, 48 h): 7.53 | Mouse Hypercal [1]: 500 µg/kg/day

CCC(CC)(c1ccc(NS(=O)(=O)CC(F)(F)F)c(C)c1)c1ccc(OCC(=O)C(C)(C)C)c(C)c1 [Ex. 29, N-(4-{1-[4-(3,3-Dimethyl-2-oxo-butoxy)-3-methyl-phenyl]-1-ethyl-propyl}-2-methyl-phenyl)-2,2,2-trifluoro-ethanesulfonamide]
pEC50 (rat osteocalcin promoter; Rattus norvegicus, 48 h): 8.34 | Mouse Hypercal [1]: 100 µg/kg/day

CCC(CC)(c1ccc(OCC(O)C(C)(C)C)cc1)c1ccc(OS(C)(=O)=O)c(C)c1 (centres unmarked) [Ex. 37, 3′-[4-(2-hydroxy-3,3-dimethylbutoxy)-phenyl]-3′-[4-methylsulfonyloxy-3-methylphenyl]pentane]
pEC50 (rat osteocalcin promoter; Rattus norvegicus, 48 h): 7.17 | EC50 (VDR): 308 nM

CCC(CC)(c1ccc(OCC(O)C(C)(C)C)c(C)c1)c1ccc(N(C)S(C)(=O)=O)c(C)c1 (centres unmarked) [Ex. 19, N-(4-{1-Ethyl-1-[4-(2-hydroxy-3,3-dimethyl-butoxy)-3-methyl-phenyl]-propyl}-2-methyl-phenyl)-N-methyl-methanesulfonamide]
pEC50 (rat osteocalcin promoter; Rattus norvegicus, 48 h): 7.78

CCC(CC)(c1ccc(OCC(=O)C(C)(C)C)c(C)c1)c1ccc(OS(=O)(=O)C(F)(F)F)c(C)c1 [Ex. 5, 3′-[4-(2-oxo-3,3-dimethylbutoxy)-3-methylphenyl]-3′-[4-(trifluoromethanesulfonyloxy)-3-methylphenyl]pentane]
pEC50 (rat osteocalcin promoter; Rattus norvegicus, 48 h): 7.68 | Mouse Hypercal [1]: >500 µg/kg/day | EC50 (VDR): 1590 nM

CCC(CC)(c1ccc(OCC(=O)C(C)(C)C)c(C)c1)c1ccc(OS(C)(=O)=O)c(C)c1 [Ex. 4, 3′-[4-(2-oxo-3,3-dimethylbutoxy)-3-methylphenyl]-3′-[4-(methanesulfonyloxy)-3-methylphenyl]pentane]
pEC50 (rat osteocalcin promoter; Rattus norvegicus, 48 h): 9.04 | EC50 (VDR): 164 nM

CCC(CC)(c1ccc(OCC(C)(O)C(C)(C)C)c(C)c1)c1ccc(OS(=O)(=O)CC)c(C)c1 (centres unmarked) [Ex. 10, 3′-[4-(2-hydroxy-2-methyl-3,3-dimethylbutoxy)-3-methylphenyl]-3′-[4-(ethanesulfonyloxy)-3-methylphenyl]pentane]
pEC50 (rat osteocalcin promoter; Rattus norvegicus, 48 h): 9.52 | EC50 (VDR): 15 nM

CCC(CC)(c1ccc(OCC(=O)C(C)(C)C)c(C)c1)c1ccc(N(S(=O)(=O)CC(F)(F)F)S(=O)(=O)CC(F)(F)F)c(C)c1 [Ex. 28, N-(4-{1-[4-(3,3-Dimethyl-2-oxo-butoxy)-3-methyl-phenyl]-1-ethyl-propyl}-2-methyl-phenyl)-N,N-bis-2,2,2-trifluoro-ethanesulfonamide]
pEC50 (rat osteocalcin promoter; Rattus norvegicus, 48 h): 7.75 | Mouse Hypercal [1]: 1000 µg/kg/day

CCC(CC)(c1ccc(NS(=O)(=O)CCS(=O)(=O)CC)c(C)c1)c1ccc(OCC(=O)C(C)(C)C)c(C)c1 [Ex. 32, N-(4-{1-[4-(3,3-Dimethyl-2-oxo-butoxy)-3-methyl-phenyl]-1-ethyl-propyl}-2-methyl-phenyl)-2-ethanesulfonyl-ethanesulfonamide]
pEC50 (rat osteocalcin promoter; Rattus norvegicus, 48 h): 6.62

CCC(CC)(c1ccc(OS(C)(=O)=O)cc1)c1ccc(OCC(=O)C(C)(C)C)c(C)c1 [Ex. 38, 3′-[4-(2-oxo-3,3-dimethylbutoxy)-3-methylphenyl]-3′-[4-methylsulfonyloxy-phenyl]pentane]
pEC50 (rat osteocalcin promoter; Rattus norvegicus, 48 h): 8.68 | Mouse Hypercal [1]: <300 µg/kg/day

CCC(CC)(c1ccc(NS(=O)(=O)CCS(=O)(=O)C(C)C)c(C)c1)c1ccc(OCC(=O)C(C)(C)C)c(C)c1 [Ex. 34, N-(4-{1-[4-(3,3-Dimethyl-2-oxo-butoxy)-3-methyl-phenyl]-1-ethyl-propyl}-2-methyl-phenyl)-2-(propane-2-sulfonyl)-ethanesulfonamide]
pEC50 (rat osteocalcin promoter; Rattus norvegicus, 48 h): 6.43

CCC(CC)(c1ccc(OCC(O)C(C)(C)C)c(C)c1)c1ccc(OS(=O)(=O)CC)c(C)c1 (centres unmarked) [Ex. 9, 3′-[4-(2-hydroxy-3,3-dimethylbutoxy)-3-methylphenyl]-3′-[4-(ethanesulfonyloxy)-3-methylphenyl]pentane]
EC50 (VDR): 13 nM

CCC(CC)(c1ccc(OCC(=O)C(C)(C)C)c(C)c1)c1ccc(N(C)S(=O)(=O)CC)c(C)c1 [Ex. 24, N-(4-{1-[4-(3,3-Dimethyl-2-oxo-butoxy)-3-methyl-phenyl]-1-ethyl-propyl}-2-methyl-phenyl)-N-methyl-ethanesulfonamide]
pEC50 (rat osteocalcin promoter; Rattus norvegicus, 48 h): 7.35 | Mouse Hypercal [1]: <1000 µg/kg/day

CCC(CC)(c1ccc(NS(=O)(=O)CCSC(C)C)c(C)c1)c1ccc(OCC(=O)C(C)(C)C)c(C)c1 [Ex. 33, N-(4-{1-[4-(3,3-Dimethyl-2-oxo-butoxy)-3-methyl-phenyl]-1-ethyl-propyl}-2-methyl-phenyl)-2-isopropylsulfanyl-ethanesulfonamide]
pEC50 (rat osteocalcin promoter; Rattus norvegicus, 48 h): 7.31

CCC(CC)(c1ccc(OCC(O)C(C)(C)C)c(C)c1)c1ccc(N(C)S(C)(=O)=O)c(C)c1 (single isomer, unassigned) [Ex. 20, N-(4-{1-ethyl-1-[4-(2-hydroxy-3,3-dimethyl-butoxy)-3-methyl-phenyl]-propyl}-2-methyl-phenyl)-N-methyl-methanesulfonamide]
pEC50 (rat osteocalcin promoter): 7.55 | Mouse Hypercal [1]: 500 µg/kg/day

CCC(CC)(c1ccc(OCC(=O)C(C)(C)C)cc1)c1cc(C)c(OS(C)(=O)=O)c(C)c1 [Ex. 41, 3′-[4-(2-oxo-3,3-dimethylbutoxy)-phenyl]-3′-[3,5-dimethyl-4-methylsulfonyloxy-phenyl]pentane]
pEC50 (rat osteocalcin promoter; Rattus norvegicus, 48 h): 6.95 | EC50 (VDR): 614 nM

CCC(CC)(c1ccc(NS(C)(=O)=O)c(C)c1)c1ccc(OCC(O)C(C)(C)C)c(C)c1 (centres unmarked) [Ex. 12, 3′-[4-(2-Hydroxy-3,3-dimethylbutoxy)-3-methylphenyl]-3′-[4-(methanesulfonylamino)-3-methylphenyl]pentane]
pEC50 (rat osteocalcin promoter; Rattus norvegicus, 48 h): 8.63 | EC50 (VDR): 112 nM

CCC(CC)(c1ccc(NS(=O)(=O)C(F)(F)F)c(C)c1)c1ccc(OCC(=O)C(C)(C)C)c(C)c1 [Ex. 27, N-(4-{1-[4-(3,3-Dimethyl-2-oxo-butoxy)-3-methyl-phenyl]-1-ethyl-propyl}-2-methyl-phenyl)-trifluoromethanesulfonamide]
pEC50 (rat osteocalcin promoter; Rattus norvegicus, 48 h): 7.98 | Mouse Hypercal [1]: 500 µg/kg/day

CCC(CC)(c1ccc(OCC(O)CO)c(C)c1)c1ccc(OCC(O)C(C)(C)C)c(C)c1 (centres unmarked) [BB, 3-(4-{1-Ethyl-1-[4-(2-hydroxy-3,3-dimethyl-butoxy)-3-methyl-phenyl]-propyl}-2-methyl-phenoxy)-propane-1,2-diol, reference compound]
pEC50 (rat osteocalcin promoter; Rattus norvegicus, 48 h): 7.96 | Mouse Hypercal [1]: 20 µg/kg/day

CCSCCS(=O)(=O)Nc1ccc(C(CC)(CC)c2ccc(OCC(=O)C(C)(C)C)c(C)c2)cc1C [Ex. 31, N-(4-{1-[4-(3,3-Dimethyl-2-oxo-butoxy)-3-methyl-phenyl]-1-ethyl-propyl}-2-methyl-phenyl)-2-ethylsulfanyl-ethanesulfonamide]
pEC50 (rat osteocalcin promoter; Rattus norvegicus, 48 h): 7.36
